Data set [1] concerns the target T1, TDP1 (Homo sapiens, UniProt Q9NUW8).
T1 construct: made in house; host or cells: E. coli
As to the kind of experiment: Steady-state kinetic analysis of TDP1 reaction, double-stranded (hairpin) substrate. The following applies: for Ki: Cornish-Bowden method, read-out: Inhibition constant, KI. It counts as biochemical. The method, then:
(§1) To determine the kinetic parameters: apparent maximum rate of enzymatic reaction (Vmax), Michaelis constant (KM), constant of inhibition (KI), and possible inhibition mechanism, steady-state kinetic experiments were carried out at five fixed concentrations of substrate with variation of inhibitor concentrations. The standard reaction mixtures (200 μl) contained 50 nM, 100 nM, 200 nM, 500 nM or 1000 nM substrate, testable inhibitor, 1.5 nM recombinant human TDP1 and reaction buffer components (50 mM Tris-HCl, pH 8.0, 50 mM NaCl, 7 mM β-mercaptoethanol). After addition of the enzyme, the reaction mixtures were incubated at a constant temperature of 26 °C and measured in a POLARstar OPTIMA fluorimeter, BMG LABTECH, GmbH, to measure fluorescence every 55 s (Ex485/Em520 nm) during the linear phase (data from 0 to 8 min). The initial data (kinetic curves) were obtained in three independent experiments and statistically processed in software OriginPro 8.6.0.
(§2) Values of the inhibition constant (KI) were determined using Cornish–Bowden method. Similar experiments were performed for all seven tested inhibitors on two types of DNA substrates, and the results are shown in Table 4.

Data set [2] concerns the target T2, SCAN1 (mutant form of TDP1 with H493R substitution) (Homo sapiens, UniProt Q9NUW8, H493R).
T2 construct: made in house; host or cells: E. coli
Briefly: Fluorescence real-time assay on mutant TDP1 (SCAN1), single-stranded oligonucleotide. It counts as biochemical. From the text: The recombinant tyrosyl-DNA phosphodiesterase 1 and the mutant form of TDP1 with substitution (H493R) were expressed in the E. coli system (plasmids pET16B-TDP1 and pET16B-SCAN1 were provided by Dr. K.W. Caldecott, University of Sussex, United Kingdom and by Dr. S. El-Khamisy, University of Sheffield, United Kingdom) and purified according to the previously described technique.
(§3) Conditions and details for our real-time detection of TDP1 activity using the single-stranded and hairpin fluorescent biosensors were reported in our previous work[47]. Briefly, the approach consists in fluorescence intensity measurement of the reaction of quencher removal from the fluorophore-quencher coupled DNA-oligonucleotide catalysed by TDP1 in the presence of inhibitor and in the absence of it (the control samples contained 1% DMSO). Reaction mixtures (200 µl) contained TDP1 buffer (50 mM Tris-HCl, pH 8.0, 50 mM NaCl, 7 mM β-mercaptoethanol), oligonucleotide (50 nM substrate of TDP1), testable inhibitor and purified TDP1 (1.5 nM). The reactions were incubated at a constant temperature of 26 °C in a POLARstar OPTIMA fluorimeter, BMG LABTECH, GmbH, to measure fluorescence every 55 s (Ex485/Em520 nm) during the linear phase (here data from 0 to 8 min). The average values of half maximal inhibitory concentration (IC50) were determined using an eleven-point concentration response curve in three independent experiments and calculated using MARS Data Analysis 2.0 (BMG LABTECH).
The IC50 values obtained by the fluorescence real-time assay on a single-stranded oligonucleotide (section 3.1) were higher than 100 μM.

The test system of data set [3] is A-549 cell line (adenocarcinomic human alveolar basal epithelial cells). Briefly: MTT test, cytotoxicity and combination with topotecan, A-549. It counts as cell-based. As to conditions: A-549 cells; for Effect on cytotoxic effect of topotecan (in words): non-toxic inhibitor concentrations; for Synergistic coefficient (SC) with topotecan: MTT, inhibitor in combination with topotecan, SC < 1 indicates synergy. The method, then:
(§4) Tumour cell line A549 (adenocarcinomic human alveolar basal epithelial cells) and noncancerous cell line WI-38 (fibroblasts derived from lung tissue of a 3 months gestation […] fetus) were used in cell-based experiments to determine the cytotoxicity of inhibitors and their effect on antitumour drug topotecan using standard MTT test[48]. Cells were incubated in Iscove’s Modified Dulbecco’s Medium (IMDM) supplemented with 10% fetal bovine serum and 40 µg/ml gentamicin, 10 U/ml penicillin, […], 0.25 µg/ml amphotericin at 37 °C and 5% CO2 for 24 h in a CO2 incubator; the optical density of the final solution was measured in the wells of the microplate at 570 nm and 620 nm wavelengths using a MultiScan FC (Thermo Scientific) microplate reader.
(§5) To study the effect of inhibitors on the cytotoxic effect of a well-known antitumour drug, the topotecan of the manufacturer “ACTAVIS GROUP PTC ehf.” was used. First of all, the 50% cytotoxic concentration (CC50) for topotecan and each inhibitor were determined to produce a defined single-agent effect. Second, three independent MTT-tests were performed with each inhibitor in combination with topotecan. Then, the synergistic coefficient (SC) was calculated according to the following formula (2)[49]: (2) SC= CC50 tpc,(+I)/CC50 tpc+CC50 I, (+tpc)/CC50 I,
(§6) CC50 tpc,(+I) and CC50 I,(+tpc) are the concentrations of topotecan and inhibitor used in combination to achieve 50% drug effect. CC50 tpc and CC50 I are the concentrations for single agents to achieve the same effect. SC values of less than, equal to, or more than 1 indicates synergy, additivity, and antagonism, respectively. The results were calculated and statistically processed in Microsoft Excel.

For data set [4], the target named is T1, TDP1. Briefly: Steady-state kinetic analysis of TDP1 reaction, single-stranded substrate. It counts as biochemical. As to conditions: for Ki: Cornish-Bowden method, read-out: Inhibition constant, KI. The method, then: as §1
Vmax and KM decrease proportionally (Figure 6(A,B)), which corresponds to the uncompetitive type of inhibition, according to the general equation of the rate of product formation in the Michaelis–Menten kinetics.
as §2

The target of data set [5] is T1, TDP1. As to the kind of experiment: Fluorescence anisotropy assay of TDP1-DNA substrate complex. It counts as binding. As to conditions: 3 nM single-strand oligonucleotide without quencher, 50 nM TDP1. The method, then: Fluorescence anisotropy was measured by using a fluorescent single-strand DNA-oligonucleotide (3 nM) without quencher at the 3′-end in the presence of the inhibitor in different concentrations (Fluorescein control, CFlu = 10^−9 M). Reaction mixtures (200 µl) contained TDP1 buffer (50 mM Tris-HCl, pH 8.0, 50 mM NaCl, 7 mM β-mercaptoethanol), a single-strand DNA-oligonucleotide without quencher (3 nM substrate of TDP1), a testable inhibitor and the purified TDP1 (50 nM). The reactions were incubated at a constant temperature of 26 °C in a POLARstar OPTIMA fluorimeter, BMG LABTECH, GmbH, to measure fluorescence anisotropy every 55 s (Ex482/Em530 nm) during the linear phase (from 0 to 8 min) in two independent experiments.
Fluorescence anisotropy (r) was calculated by using the Equation (1): (1) r = (III–I⊥)/(III+ 2I⊥)
The dependence of the anisotropy on the concentration of the inhibitor was determined using a six-point response curve in two independent experiments and calculated using MARS Data Analysis 2.0 (BMG LABTECH).
To obtain some information about interaction of disaccharide nucleosides with TDP1, anisotropy of the fluorescent DNA substrate was measured. We used single-stranded oligonucleotide without a quencher at the 3′-end in the presence of testable inhibitors at different concentrations.

Data set [6] relates to WI-38 cell line (noncancerous fibroblasts derived from lung tissue). As to the kind of experiment: MTT test, cytotoxicity and combination with topotecan, WI-38. It counts as cell-based, human. The following applies: WI-38 non-cancerous cell line. The method, then:
as §4, §5, §6

The nature of data set [7]: Water solubility (qualitative). It counts as physicochemical.
The target in data set [8] is T1, TDP1. As to the kind of experiment: Real-time fluorescence detection of TDP1 activity, single-stranded FAM/BHQ biosensor. It counts as biochemical. The following applies: for IC50: single-stranded fluorescent biosensor 50 nM, TDP1 1.5 nM, 26 °C, read-out: IC50 (half-maximal inhibitory concentration) of TDP1 activity; for Inhibitory effect on TDP1 activity (in words): single-stranded fluorescent biosensor, primary screening. The method, then:
as §3
To discover inhibitors of TDP1 we recently developed original single-stranded and hairpin fluorophore–quencher coupled DNA-biosensors for real-time measurement of TDP1 cleavage activity. The single-stranded substrate is a 16-mer oligonucleotide containing both 5′-FAM fluorophore donor and a quenching 3′-BHQ moiety (Figure 1(A)). When the quencher is removed by TDP1, the fluorescence intensity increases and can be measured by fluorimeter (TDP1 catalysed reaction on biosensor is shown in Figure 3(A). Fluorescence intensity declines in the presence of inhibitor, the resulting curves of the dependence of TDP1 residual activity as a function of the concentration of inhibitors were obtained using 4-parameter logistic regression fit, which was used to calculate IC50 values[47]^,[58].
For primary screening, the effect of a large group of disaccharide nucleosides and their hydrophobic derivatives on human recombinant TDP1 activity has been evaluated by fluorescent method on a single-stranded substrate described above.

Each structure is given as a SMILES string.

T1 sequence (Q9NUW8 whole entry): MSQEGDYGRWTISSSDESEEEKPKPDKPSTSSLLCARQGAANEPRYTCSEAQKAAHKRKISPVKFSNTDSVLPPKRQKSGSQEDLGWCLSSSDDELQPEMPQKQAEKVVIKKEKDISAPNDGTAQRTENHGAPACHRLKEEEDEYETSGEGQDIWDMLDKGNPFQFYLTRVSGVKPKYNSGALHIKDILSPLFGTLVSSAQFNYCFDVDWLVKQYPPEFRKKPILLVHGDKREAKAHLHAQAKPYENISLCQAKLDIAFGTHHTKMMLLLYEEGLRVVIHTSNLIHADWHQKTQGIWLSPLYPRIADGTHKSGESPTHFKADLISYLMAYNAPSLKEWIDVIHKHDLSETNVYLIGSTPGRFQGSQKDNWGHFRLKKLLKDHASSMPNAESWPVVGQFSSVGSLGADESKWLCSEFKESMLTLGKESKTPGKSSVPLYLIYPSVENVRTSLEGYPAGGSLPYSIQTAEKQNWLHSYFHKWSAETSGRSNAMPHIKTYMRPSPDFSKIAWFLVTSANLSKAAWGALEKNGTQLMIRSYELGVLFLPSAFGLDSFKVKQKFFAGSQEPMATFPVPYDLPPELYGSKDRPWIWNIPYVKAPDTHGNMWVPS
T2 sequence (Q9NUW8 whole entry H493R): as the sequence (Q9NUW8 whole entry) above, with H493R counted along it

Take `CC(C)C(=O)Nc1nc2c(ncn2[C@@H]2O[C@@H]3CO[Si](C(C)C)(C(C)C)O[Si](C(C)C)(C(C)C)O[C@H]3[C@H]2O[C@@H]2O[C@H](COC(=O)c3ccccc3)[C@@H](OC(=O)c3ccccc3)[C@H]2OC(=O)c2ccccc2)c(=O)[nH]1` [Compound 11]: at TDP1 [1], the Type of inhibition result is “Mixed” and the Ki was 300 ± 200 nM. The compound also came in with an IC50 in data set [2] of more than 100 µM. Also, in data set [3], the “Effect on cytotoxic effect of topotecan (in words)” value (from here on “Effect on cytotoxic effect”) is “significant increase of cytotoxic effect of topotecan”. At TDP1 [4], the Type of inhibition result is given as “Mixed” and the Ki was 200 ± 100 nM. Moreover, the “Change of fluorescence anisotropy with inhibitor concentration” value (“Change … with inhibitor concentration” for short) on TDP1 [5] was “significant decrease in the anisotropy”.
Turning to `CC(C)[Si]1(C(C)C)OC[C@H]2O[C@@H](n3ccc(=O)[nH]c3=O)[C@H](O[C@@H]3O[C@H](COC(=O)c4ccccc4)[C@@H](OC(=O)c4ccccc4)[C@H]3OC(=O)c3ccccc3)[C@@H]2O[Si](C(C)C)(C(C)C)O1` [Compound 21], at TDP1 [1], the Type of inhibition result is “Mixed” and the Ki came out at 400 ± 300 nM. This compound also registered an IC50 in data set [2] of more than 100 µM. For the same compound, in data set [3], the “Synergistic coefficient (SC) with topotecan” value (“Synergistic coefficient (SC)” below) is given as “less than or equal to 0.7” and the “Effect on cytotoxic effect” value is listed as “significant increase of cytotoxic effect of topotecan”. For the same compound, in data set [6], the “Synergy with topotecan (in words)” value is given as “demonstrated synergy with topotecan”. In addition, on TDP1 [4], the Type of inhibition result was “Mixed” and the Ki worked out at 300 ± 200 nM. Besides, the “Change … with inhibitor concentration” value at TDP1 [5] is reported as “significant decrease in the anisotropy”.
Regarding `Cc1cn([C@@H]2O[C@H](COP(=O)([O-])[O-])[C@@H](O)[C@H]2O[C@@H]2O[C@H](CO)[C@@H](O)[C@H]2O)c(=O)[nH]c1=O.[Na+].[Na+]` [Compound 6], the Type of inhibition result at TDP1 [1] and at TDP1 [4] was “Noncompetitive” throughout. For the same compound, the Ki at TDP1 [1] turned out to be 8800 ± 900 nM; on TDP1 [4], 7900 ± 800 nM. Also, the IC50 in data set [2] was more than 100 µM; on TDP1 [8], 18.5 ± 0.8 µM. Also, the “Effect on cytotoxic effect” value in data set [3] is listed as “significant increase of cytotoxic effect of topotecan”. In addition, the “Water solubility (in words)” value in data set [7] is on record as “high water solubility”. Also, the “Change … with inhibitor concentration” value at TDP1 [5] is “anisotropy remained unchanged”.
For the compound `Cc1cn([C@@H]2O[C@@H]3CO[Si](C(C)C)(C(C)C)O[Si](C(C)C)(C(C)C)O[C@H]3[C@H]2O[C@@H]2O[C@H](COC(=O)c3ccccc3)[C@@H](OC(=O)c3ccccc3)[C@H]2OC(=O)c2ccccc2)c(=O)[nH]c1=O` [Compound 7], on TDP1 [1], the Type of inhibition result is “Mixed” and the Ki turned out to be 300 ± 100 nM. This compound returned an IC50 in data set [2] of more than 100 µM. In data set [3], the “Synergistic coefficient (SC)” value is listed as “less than or equal to 0.7” and the “Effect on cytotoxic effect” value is given as “significant increase of cytotoxic effect of topotecan”. In addition, on TDP1 [4], the Type of inhibition entry is “Mixed” and the Ki was determined as 900 ± 300 nM. The “Change … with inhibitor concentration” value at TDP1 [5] was “significant decrease in the anisotropy”.
In the case of `Nc1ncnc2c1ncn2[C@@H]1O[C@H](CO)[C@@H](O)[C@H]1O[C@@H]1O[C@H](COP(=O)([O-])[O-])[C@@H](O)[C@H]1O.[Na+].[Na+]` [Compound 3], in data set [7], the “Water solubility (in words)” value was “water-soluble”. The “Inhibitory effect on TDP1 activity (in words)” value on TDP1 [8] is “low inhibitory effect”.
The corresponding values for `Nc1nc2c(ncn2[C@@H]2O[C@H](CO)[C@@H](O)[C@H]2O[C@@H]2O[C@H](COP(=O)([O-])[O-])[C@@H](O)[C@H]2O)c(=O)[nH]1.[Na+].[Na+]` [Compound 9] are “water-soluble” and “not active at all”.
Turning to `CC(C)[Si]1(C(C)C)OC[C@H]2O[C@@H](n3cnc4c(NC(=O)c5ccccc5)ncnc43)[C@H](O[C@@H]3O[C@H](COC(=O)c4ccccc4)[C@@H](OC(=O)c4ccccc4)[C@H]3OC(=O)c3ccccc3)[C@@H]2O[Si](C(C)C)(C(C)C)O1` [Compound 4], on TDP1 [1], the Type of inhibition entry is listed as “Mixed” and the Ki is 200 ± 100 nM. In addition, in data set [2], the IC50 was more than 100 µM. Further, in data set [3], the “Synergistic coefficient (SC)” value is recorded as “less than or equal to 0.7” and the “Effect on cytotoxic effect” value is “significant increase of cytotoxic effect of topotecan”. The IC50 on TDP1 [8] amounted to 1.3 ± 0.2 µM. In addition, on TDP1 [4], the Type of inhibition entry is listed as “Mixed” and the Ki was found to be 300 ± 100 nM. For the same compound, the “Change … with inhibitor concentration” value at TDP1 [5] is on record as “significant decrease in the anisotropy”.

For the origin of these results see PMC6136360, “Novel group of tyrosyl-DNA-phosphodiesterase 1 inhibitors based on disaccharide nucleosides as drug prototypes for anti-cancer therapy” (Journal of Enzyme Inhibition and Medicinal Chemistry, 2018).
